Results: US8975289B2, “Benzyl aralkyl ether compounds, method for preparing same, intermediate compounds, use of said compounds, method for treatment and/or prevention, pharmaceutical composition and medicament containing same” (priority 2009, dated 2015)
≈ marks a conversion by molar mass, not a printed value. Where two headings read alike, the source gives them in different places.

Key:
Format in all cases: cell-based
Microsporum gypseum 24 = experiment: Broth microdilution MIC (M38-A), filamentous fungi, strain III; details: Nannizzia gypsea
Description: (§1) For the experiments of the present invention, the dermatophyte-type fungi strains that were obtained from clinical isolates and laboratory isolates, as described in Table 2 as follows, were used:
(§2) The fungal strains were grown on agar potato medium in a sloping chute at a temperature of 30° C. for a period of 7 to 15 days.
(§3) For the experiments, the compound 1-[2-(2,4-dichlorophenyl)-2-{[4-(trifluoromethyl)benzyl]oxy}ethyl]-1H-imidazole (BL-123) in the form of its nitrate salt and miconazole nitrate were used. Both compounds were dissolved in dimethyl sulfoxide (DMSO) to match the final concentration of the compound equal to or less than 1%.
(§4) The methodology used to test the sensitivity of the agent was of broth microdilution according to the method described in Standard M38-A (Reference method for broth dilution tests for determining the sensitivity to antifungal therapy for filamentous fungi; NCCLS, volume 22 No. 16, USA, 2008) as follows.
(§5) The fungus was cultivated pursuant to item 4.1. To the tubes wherein the fungi were grown, 5 mL of saline solution were added in order to extract the fungi from the agar surface. Then, this homogeneous suspension was transferred to a new tube and the colony-forming units (CFUs) were quantified according to counting methods: (i) in Sabouraud dextrose agar plates and (ii) in a Neubauer chamber.
(§6) Then, the fungi strains listed in Table 2 were inoculated in duplicate in a 96-well plate. There were used inocula of from 2 to 6×10^3 CFU/mL of fungi, per well, in a total volume of 0.2 mL of RPMI-1640 (containing L-glutamine and without bicarbonate) buffered at pH 7.0 with MOPS (acid 3-(N-morpholine) 15 propanesulfonic). The procedure was performed in a laminar flow.
(§7) The compounds to be tested were added in a serial dilution, in duplicate, in final concentrations of 16 μg/mL; 8 μg/mL; 4 μg/mL; 2 μg/mL; 1 μg/mL; 0.5 μg/mL; 0.25 μg/mL; 0.125 μg/mL; 0.0625 μg/mL; or 0.03125 μg/mL in culture medium present in each well.
(§8) The incubation of fungi with these compounds was performed by 4, 5, 6 and 7 days at temperatures from 30 to 35° C.
(§9) The fungi quantification was carried out with the growth of fungi in each well being compared to the growth occurred in the negative control by means of a mirror reading. The negative control is represented by fungi grown in culture medium in the absence of the tested compounds. The methodology of this comparison is the numerical rating to which the microdilution well was submitted. […]

Candida albicans 10231 = experiment: Broth microdilution MIC (M27-A2), yeast, strain XIV; details: Candida albicans; strain XIV 10231, 48 hours incubation; read-out: MIC
Description: (§10) For the experiments of the present invention (i) yeast strains obtained from clinical isolates and laboratory isolates, and (ii) bacterial strains obtained from laboratory isolates were used, as described in Table 5 as follows. The yeast strains were grown in culture medium Sabouraud Dextrose Agar maintained at a temperature of 35° C. for 48 hours. […] The compounds were dissolved in dimethyl sulfoxide (DMSO) to match the final concentration of the compound equal to or less than 1%. The methodology used to test the sensitivity of the agent was broth microdilution according to the method described in Standard M27-A2 (Reference method for broth dilution tests to determine the sensitivity of yeasts to antifungal therapy-second edition, NCCLS, volume 22 number 15, USA, 2002) as follows. […] Then the suspensions were diluted in culture medium RPMI-1640 (buffered with MOPS 0.165 mol/l) at a final concentration of 50 to 2500 CFU/mL. The diluted suspensions were inoculated in duplicate in a 96-well plate. The procedure was performed in a laminar flow. […] The incubation of fungi with these compounds was carried out for 48 hours at temperature of 30 to 35° C. […] We have agreed in this experiment that the turbid medium is the result of microbial growth and the presence of deposit and a clear medium represents the absence of microbial growth. The minimum inhibitory concentration (MIC) was defined as the lowest tested drug concentration that prevents any degree of […] growth.

Aspergillus Niger 16404 = experiment: Broth microdilution MIC (M38-A), filamentous fungi, strain I; details: for MIC: Aspergillus niger; for Resistance or sensitivity of the strain to the agent (in words): clinical isolate strain I
Description: as §1, §2, §3, §4, §5, §6, §7, §8
(§11) The fungi quantification was carried out with the growth of fungi in each well being compared to the growth occurred in the negative control by means of a mirror reading. The negative control is represented by fungi grown in culture medium in the absence of the tested compounds. The methodology of this comparison is the numerical rating to which the microdilution well was submitted. In this methodology, value 4 corresponds to no reduction of growth, value 3 corresponds to a slight reduction in growth or approximately 75% of the growth of the negative control, value 2 corresponds to a standout reduction in growth or approximately 50% of growth of negative control; value 1 corresponds to a slight growth or approximately 25% of the growth of the negative control, and value 0 corresponds to optically clear or absence of growth.
(§12) In this experiment, the minimum inhibitory concentration (MIC) is considered as the lowest concentration of the agent capable of inhibiting at least 80% of the growth of colony-forming units (CFUs).

[1] = system: Trichophyton rubrum 40005; experiment: Broth microdilution MIC (M38-A), filamentous fungi, strain XI
Description: as §1, §2, §3, §4, §5, §6, §7, §8, §9

Candida glabrata 2001 = experiment: Broth microdilution MIC (M27-A2), yeast, strain XVI; details: Nakaseomyces glabratus; strain XVI 2001, 48 hours incubation; read-out: MIC
Description: as §10

Trichophyton rubrum 455 = experiment: Broth microdilution MIC (M38-A), filamentous fungi, strain VIII; details: for MIC: Trichophyton rubrum; for Resistance or sensitivity of the strain to the agent (in words): clinical isolate strain VIII
Description: as §1, §2, §3, §4, §5, §6, §7, §8, §11, §12

[2] = system: Trichophyton rubrum 28188; experiment: Broth microdilution MIC (M38-A), filamentous fungi, strain V
Description: as §1, §2, §3, §4, §5, §6, §7, §8, §9

[3] = system: Trichophyton verrucosum 381; experiment: Broth microdilution MIC (M38-A), filamentous fungi, strain VII; details: for MIC: Trichophyton verrucosum; for Resistance or sensitivity of the strain to the agent (in words): clinical isolate strain VII
Description: as §1, §2, §3, §4, §5, §6, §7, §8, §11, §12

[4] = system: filamentous fungi strains of Table 2 (n = 13); experiment: MIC50, MIC90 and variation of MICs over the 13 strains of Table 2; details: for MIC50 / MIC90: n = 13 strains; for MIC50: read-out: MIC50 (minimum inhibitory concentration to inhibit 50% of strains), Average MIC; for MIC90: read-out: MIC90 (minimum inhibitory concentration to inhibit 90% of strains), Average MIC
Description: as §1, §2, §3, §4, §5, §6, §7, §8, §11, §12

[5] = system: Candida parapsilosis 22019; experiment: Broth microdilution MIC (M27-A2), yeast, strain XV; details: strain XV 22019, 48 hours incubation; read-out: MIC
Description: as §10

[6] = system: Trichophyton verrucosum 381; experiment: Broth microdilution MIC (M38-A), filamentous fungi, strain IV
Description: as §1, §2, §3, §4, §5, §6, §7, §8, §9

[7] = 96 h, strain III 24, reading Day 4, average of four experiments
[8] = 168 h, strain III 24, reading Day 7, average of four experiments
[9] = NIGER16404, 96 h, strain I 16404, reading Day 4, average of four experiments, >=80% growth inhibition
[10] = NIGER16404, 168 h, strain I 16404, reading Day 7, average of four experiments
[11] = 96 h, strain XI 40005, reading Day 4, average of four experiments
[12] = 168 h, strain XI 40005, reading Day 7, average of four experiments
[13] = 96 h, strain VIII 455, reading Day 4, average of four experiments
[14] = 168 h, strain VIII 455, reading Day 7, average of four experiments
[15] = 96 h, strain V 28188, reading Day 4, average of four experiments
[16] = 168 h, strain V 28188, reading Day 7, average of four experiments
[17] = 96 h, strain VII 381, reading Day 4, average of four experiments
[18] = 168 h, strain VII 381, reading Day 7, average of four experiments
[19] = 96 h, strain IV 381, reading Day 4, average of four experiments
[20] = 168 h, strain IV 381, reading Day 7, average of four experiments

Structure (SMILES)	MIC (Microsporum gypseum 24; [7]) [µg/mL]	MIC (Microsporum gypseum 24; [8]) [µg/mL]	MIC (Candida albicans 10231) [µg/mL]	MIC (Aspergillus Niger 16404; [9]) [µg/mL]	MIC (Aspergillus Niger 16404; [10]) [µg/mL]	Resistance or sensitivity of the strain to the agent (in words) (Aspergillus Niger 16404)	MIC [1, 11] [µg/mL]	MIC [1, 12] [µg/mL]	MIC (Candida glabrata 2001) [µg/mL]	MIC (Trichophyton rubrum 455; [13]) [µg/mL]	MIC (Trichophyton rubrum 455; [14]) [µg/mL]	Resistance or sensitivity of the strain to the agent (in words) (Trichophyton rubrum 455)	MIC [2, 15] [µg/mL]	MIC [2, 16] [µg/mL]	MIC [3, 17] [µg/mL]	MIC [3, 18] [µg/mL]	Resistance or sensitivity of the strain to the agent (in words) [3]	MIC50 ([4]; 96 h, Day 4) [µg/mL]	MIC90 ([4]; 96 h, Day 4) [µg/mL]	MIC50 ([4]; 168 h, Day 7) [µg/mL]	other results
FC(F)(F)c1ccc(COC(Cn2ccnc2)c2ccc(Cl)cc2Cl)cc1 (stereo not shown) [BL-123, 1-[2-(2,4-dichlorophenyl)-2-{[4-(trifluoromethyl)benzyl]oxy}ethyl]-1H-imidazole]	0.25 (≈ 0.602 µM)	0.25 (≈ 0.602 µM)	8 (≈ 19.3 µM)	8 (≈ 19.3 µM)	8 (≈ 19.3 µM)	sensitive	0.25 (≈ 0.602 µM)	0.5 (≈ 1.2 µM)	0.125 (≈ 0.301 µM)	4 (≈ 9.63 µM)	8 (≈ 19.3 µM)	sensitive	0.03 (≈ 0.0722 µM)	0.03 (≈ 0.0722 µM)	4 (≈ 9.63 µM)	> 16	sensitive	0.25 (≈ 0.602 µM)	4 (≈ 9.63 µM)	0.5 (≈ 1.2 µM)	Inhibitory effect on growth (in words) ([4]; 13 different strains, seven different species): exerts an inhibitory effect on growth; MIC90 ([4]; 168 h, Day 7): 8 µg/mL (≈ 19.3 µM); MIC [5]: 4 µg/mL (≈ 9.63 µM); MIC [6, 19]: > 16 µg/mL; MIC [6, 20]: > 16 µg/mL
Clc1ccc(COC(Cn2ccnc2)c2ccc(Cl)cc2Cl)c(Cl)c1 (stereo not shown) [Miconazole, miconazole, reference compound]	0.05 (≈ 0.12 µM)	0.05 (≈ 0.12 µM)	4 (≈ 9.61 µM)	> 16	> 16	resistant	0.5 (≈ 1.2 µM)	1 (≈ 2.4 µM)	0.125 (≈ 0.3 µM)	> 16	> 16	resistant	0.03 (≈ 0.0721 µM)	0.06 (≈ 0.144 µM)	> 16	> 16	resistant	0.5 (≈ 1.2 µM)	> 16	1 (≈ 2.4 µM)	MIC90 ([4]; 168 h, Day 7): > 16 µg/mL; MIC [5]: 2 µg/mL (≈ 4.81 µM); MIC [6, 19]: > 16 µg/mL; MIC [6, 20]: > 16 µg/mL
